Laboratory results: the supplement of paper PMC11061612

What was measured:
Assay in all cases: combination Emax (second highest fraction inhibited in the dose matrix, 72 h); higher = more inhibition; extreme values may be limits of the assay
[1] = system: Caov-4 (Ovarian Carcinoma)
Method in brief: (§1)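 Bliss excess equals the observed combination effect minus the expected value EA + EB − EA·EB, where EA and EB are the effects of each agent alone. Combination Emax is the second-highest inhibition within the matrix. Inhibition was scaled from CellTiter-Glo 2.0 luminescence, with 0 set by vehicle wells and 1 by blank wells, after 72 hours of two-drug dosing of cells plated in 1536-well plates.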

[2] = system: LU-65 (Non-Small Cell Lung Carcinoma)
Method in brief: as §1

[3] = system: KARPAS-299 (T-Cell Non-Hodgkin's Lymphoma)
Method in brief: as §1

[4] = system: MLMA (Other Blood Carcinomas)
Method in brief: as §1

[5] = system: NCI-H358 (Lung Adenocarcinoma)
Method in brief: as §1

[6] = system: AMO-1 (Plasma Cell Myeloma)
Method in brief: as §1

TK10 (Kidney Carcinoma) = system: TK10 (Kidney Carcinoma)
Method in brief: as §1

YH-13 (Glioblastoma) = system: YH-13 (Glioblastoma)
Method in brief: as §1

[7] = system: EoL-1-cell (Acute Myeloid Leukemia)
Method in brief: as §1

EW-24 (Ewing's Sarcoma) = system: EW-24 (Ewing's Sarcoma)
Method in brief: as §1

C[C@@H](Oc1cc(-c2cnn(C3CCNCC3)c2)cnc1N)c1c(Cl)ccc(F)c1Cl [Crizotinib] + CC1=C(C(=CC=C1)Cl)NC(=O)C2=CN=C(S2)NC3=CC(=NC(=N3)C)N4CCN(CC4)CCO [Dasatinib] (first compound max 10 µM, 7x7, partner max 2 µM)
combination Emax [1]: 0.414 | combination Emax [2]: 0.852 | combination Emax [3]: 0.888 | combination Emax [4]: 0.529 | combination Emax [5]: 0.607 | combination Emax [6]: 0.954 | combination Emax (TK10 (Kidney Carcinoma)): 0.826 | combination Emax (YH-13 (Glioblastoma)): 0.978 | combination Emax [7]: 1 | combination Emax (EW-24 (Ewing's Sarcoma)): 0.738

C[C@@H](Oc1cc(-c2cnn(C3CCNCC3)c2)cnc1N)c1c(Cl)ccc(F)c1Cl [Crizotinib] + Cn1cnc2c(F)c(Nc3ccc(Br)cc3Cl)c(C(=O)NOCCO)cc21 [Selumetinib] (first compound max 10 µM, 7x7, partner max 10 µM)
combination Emax [1]: 0.552 | combination Emax [2]: 0.974 | combination Emax [3]: 0.895 | combination Emax [4]: 0.491 | combination Emax [5]: 0.587 | combination Emax [6]: 0.999 | combination Emax (TK10 (Kidney Carcinoma)): 0.367 | combination Emax (YH-13 (Glioblastoma)): 0.446 | combination Emax [7]: 1 | combination Emax (EW-24 (Ewing's Sarcoma)): 0.545

CS(=O)(=O)CCNCc1ccc(-c2ccc3ncnc(Nc4ccc(OCc5cccc(F)c5)c(Cl)c4)c3c2)o1 [Lapatinib] + Cn1cnc2c(F)c(Nc3ccc(Br)cc3Cl)c(C(=O)NOCCO)cc21 [Selumetinib] (first compound max 10 µM, 7x7, partner max 10 µM)
combination Emax [1]: 0.694 | combination Emax [2]: 0.701 | combination Emax [3]: 0.446 | combination Emax [4]: 0.316 | combination Emax [5]: 0.621 | combination Emax [6]: 0.894 | combination Emax (TK10 (Kidney Carcinoma)): 0.605 | combination Emax (YH-13 (Glioblastoma)): 0.209 | combination Emax [7]: 0.832 | combination Emax (EW-24 (Ewing's Sarcoma)): 0.222

O=C(c1cc(Cc2n[nH]c(=O)c3ccccc23)ccc1F)N1CCN(C(=O)C2CC2)CC1 [Olaparib] + CC1(C)CCC(CN2CCN(c3ccc(C(=O)NS(=O)(=O)c4ccc(NCC5CCOCC5)c([N+](=O)[O-])c4)c(Oc4cnc5[nH]ccc5c4)c3)CC2)=C(c2ccc(Cl)cc2)C1 [Venetoclax] (first compound max 10 µM, 7x7, partner max 1 µM)
combination Emax [1]: 0.137 | combination Emax [2]: 0.164 | combination Emax [3]: 0.306 | combination Emax [4]: 0.265 | combination Emax [5]: 0.133 | combination Emax [6]: 0.333 | combination Emax (TK10 (Kidney Carcinoma)): 0.0731 | combination Emax (YH-13 (Glioblastoma)): 0.195 | combination Emax [7]: 0.99 | combination Emax (EW-24 (Ewing's Sarcoma)): 0.195

O=C(c1cc(Cc2n[nH]c(=O)c3ccccc23)ccc1F)N1CCN(C(=O)C2CC2)CC1 [Olaparib] + CN(CC[C@H](CSC1=CC=CC=C1)NC2=C(C=C(C=C2)S(=O)(=O)NC(=O)C3=CC=C(C=C3)N4CCC(CC4)[C@H](C5=CC=CC=C5C6=CC=C(C=C6)Cl)O)S(=O)(=O)C(F)(F)F)CCO [AZD4320] (first compound max 10 µM, 7x7, partner max 1 µM)
combination Emax [1]: 0.181 | combination Emax [2]: 0.194 | combination Emax [3]: 0.432 | combination Emax [4]: 0.519 | combination Emax [5]: 0.182 | combination Emax [6]: 0.424 | combination Emax (TK10 (Kidney Carcinoma)): 0.128 | combination Emax (YH-13 (Glioblastoma)): 0.401 | combination Emax [7]: 1 | combination Emax (EW-24 (Ewing's Sarcoma)): 0.606

O=C(c1cc(Cc2n[nH]c(=O)c3ccccc23)ccc1F)N1CCN(C(=O)C2CC2)CC1 [Olaparib] + COc1nnc2ccc(N3CCC(c4ccc(OCCN5CCN(C)C(=O)[C@H]5C)cc4)CC3)nn12 [AZD5153] (first compound max 10 µM, 7x7, partner max 1 µM)
combination Emax [1]: 0.456 | combination Emax [2]: 0.49 | combination Emax [3]: 0.774 | combination Emax [4]: 0.83 | combination Emax [5]: 0.295 | combination Emax [6]: 0.882 | combination Emax (TK10 (Kidney Carcinoma)): 0.482 | combination Emax (YH-13 (Glioblastoma)): 0.556 | combination Emax [7]: 0.97 | combination Emax (EW-24 (Ewing's Sarcoma)): 0.639

O=C(c1cc(Cc2n[nH]c(=O)c3ccccc23)ccc1F)N1CCN(C(=O)C2CC2)CC1 [Olaparib] + Cc1c2c(nn1C)CSCc1cc(n(C)n1)CSc1cc(c3ccccc3c1)OCCCc1c(C(=O)O)n(C)c3c-2c(Cl)ccc13 [AZD5991] (first compound max 10 µM, 7x7, partner max 1 µM)
combination Emax [1]: 0.482 | combination Emax [2]: 0.2 | combination Emax [3]: 0.931 | combination Emax [4]: 0.384 | combination Emax [5]: 0.197 | combination Emax [6]: 1 | combination Emax (TK10 (Kidney Carcinoma)): 0.0994 | combination Emax (YH-13 (Glioblastoma)): 0.187 | combination Emax [7]: 1 | combination Emax (EW-24 (Ewing's Sarcoma)): 0.193

Cc1nc(-c2cn3c(n2)-c2ccc(-c4cnn(C(C)(C)C(N)=O)c4)cc2OCC3)n(C(C)C)n1 [Taselisib] + O=C(Nc1ccc2[nH]nc(-c3ccncc3)c2c1)[C@@H]1CCN(CC(=O)N2CCN(c3ccc(-c4ncccn4)cc3)CC2)C1 [SCH772984] (first compound max 10 µM, 7x7, partner max 5 µM)
combination Emax [1]: 0.763 | combination Emax [2]: 0.991 | combination Emax [3]: 0.413 | combination Emax [4]: 0.561 | combination Emax [5]: 0.798 | combination Emax [6]: 0.761 | combination Emax (TK10 (Kidney Carcinoma)): 0.773 | combination Emax (YH-13 (Glioblastoma)): 0.932 | combination Emax [7]: 1 | combination Emax (EW-24 (Ewing's Sarcoma)): 0.602

CC1(C)CCC(CN2CCN(c3ccc(C(=O)NS(=O)(=O)c4ccc(NCC5CCOCC5)c([N+](=O)[O-])c4)c(Oc4cnc5[nH]ccc5c4)c3)CC2)=C(c2ccc(Cl)cc2)C1 [Venetoclax] + CS(=O)(=O)CCNCc1ccc(-c2ccc3ncnc(Nc4ccc(OCc5cccc(F)c5)c(Cl)c4)c3c2)o1 [Lapatinib] (first compound max 1 µM, 7x7, partner max 10 µM)
combination Emax [1]: 0.304 | combination Emax [2]: 0.207 | combination Emax [3]: 0.337 | combination Emax [4]: 0.117 | combination Emax [5]: 0.431 | combination Emax [6]: 0.882 | combination Emax (TK10 (Kidney Carcinoma)): 0.516 | combination Emax (YH-13 (Glioblastoma)): 0.0901 | combination Emax [7]: 0.986 | combination Emax (EW-24 (Ewing's Sarcoma)): 0.245
